Non-standard residues stand in square brackets, D forms with d. Residues, ends and D or L forms follow the SMILES beside them. *: point of attachment. Hyp = O=C(O)[C@@H]1C[C@@H](O)CN1; NH(CH2)3NH2 = NCCCN*; Bn = c1ccc(C*)cc1
Columns and labels:
[1] = molecular target: T1, MC1-R (B-16 mouse melanoma cells) (Mus musculus, UniProt Q01727); assay: Competitive inhibition binding assay, 125I-NDP-α-MSH, MC1-R; details: for Inhibition at 1 μM MC1-R: 1 μM compound, inhibition of 125I-NDP-α-MSH binding, mean of triplicates, results less than 0% reported as 0%
T1 construct: B-16 mouse melanoma cells (containing MC1-R); endogenous in cells; host or cells: B-16 mouse melanoma cells
T1 sequence (Q01727 whole entry): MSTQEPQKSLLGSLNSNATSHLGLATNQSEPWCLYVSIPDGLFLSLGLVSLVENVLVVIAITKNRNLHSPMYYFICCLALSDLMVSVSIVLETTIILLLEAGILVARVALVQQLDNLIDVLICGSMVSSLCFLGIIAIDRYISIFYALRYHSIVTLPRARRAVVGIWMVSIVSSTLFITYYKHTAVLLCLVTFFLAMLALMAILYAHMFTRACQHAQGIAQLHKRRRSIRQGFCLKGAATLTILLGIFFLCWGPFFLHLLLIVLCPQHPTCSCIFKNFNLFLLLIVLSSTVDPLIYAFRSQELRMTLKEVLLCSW
Protocol: (§1) The competitive inhibition binding assay was conducted using membranes prepared from hMC3-R, hMC4-R, hMC5-R, and B-16 mouse melanoma cells (containing MC1-R) using 0.4 nM ^125I-NDP-α-MSH (New England Nuclear, Boston, Mass., USA) in 50 mM HEPES buffer containing 1 mM MgCl2, 2 mM CaCl2, and 5 mM KCl, at pH 7.2. The assay tube also contained a chosen concentration of the test peptidomimetic of this invention, generally 1 μM, for determining its efficacy in inhibiting the binding of ^125I-NDP-α-MSH to its receptor.
(§2) Incubation was for 90 minutes at room temperature, after which the assay mixture was filtered and the membranes washed three times with ice cold buffer. The filter was dried and counted in a gamma counter for remaining radioactivity bound to the membranes. 100% specific binding was defined as the difference in radioactivity (cpm) bound to cell membranes in the absence and presence of 1 μM α-MSH. […] Each assay was conducted in triplicate and the actual mean values are described.

MC3-R = MC3-R (Homo sapiens, UniProt P41968); assay: Competitive inhibition binding assay, 125I-NDP-α-MSH, MC3-R; design: expressed in transfected cells; details: for Inhibition at 1 μM MC3-R: 1 μM compound, inhibition of 125I-NDP-α-MSH binding, mean of triplicates, results less than 0% reported as 0%
Sequence of MC3-R (P41968 whole entry): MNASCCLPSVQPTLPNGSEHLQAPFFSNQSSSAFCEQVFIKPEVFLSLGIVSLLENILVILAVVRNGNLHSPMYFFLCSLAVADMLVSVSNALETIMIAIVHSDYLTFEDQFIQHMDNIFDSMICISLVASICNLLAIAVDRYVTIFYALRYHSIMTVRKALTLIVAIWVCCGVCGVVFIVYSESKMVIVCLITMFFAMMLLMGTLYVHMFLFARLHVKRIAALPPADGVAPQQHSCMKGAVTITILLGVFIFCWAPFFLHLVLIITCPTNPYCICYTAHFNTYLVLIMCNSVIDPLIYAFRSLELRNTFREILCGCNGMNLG
Protocol: as §1, §2

MC4-R = MC4-R (Homo sapiens, UniProt P32245); assay: Competitive inhibition binding assay, 125I-NDP-α-MSH, MC4-R; design: expressed in transfected cells; details: for Inhibition at 1 μM MC4-R: 1 μM compound, inhibition of 125I-NDP-α-MSH binding, mean of triplicates, results less than 0% reported as 0%
Sequence of MC4-R (P32245 whole entry): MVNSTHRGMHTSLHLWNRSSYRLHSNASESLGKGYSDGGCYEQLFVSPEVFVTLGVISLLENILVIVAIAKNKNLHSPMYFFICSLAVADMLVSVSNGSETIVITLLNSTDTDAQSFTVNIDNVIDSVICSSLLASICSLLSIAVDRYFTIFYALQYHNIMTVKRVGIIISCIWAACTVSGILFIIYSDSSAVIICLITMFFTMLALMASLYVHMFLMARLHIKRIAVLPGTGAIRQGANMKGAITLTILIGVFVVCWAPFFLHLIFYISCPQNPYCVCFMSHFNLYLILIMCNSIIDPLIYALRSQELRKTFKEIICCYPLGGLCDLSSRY
Protocol: as §1, §2

MC5-R = MC5-R (Homo sapiens, UniProt P33032); assay: Competitive inhibition binding assay, 125I-NDP-α-MSH, MC5-R; design: expressed in transfected cells; details: for Inhibition at 1 μM MC5-R: 1 μM compound, inhibition of 125I-NDP-α-MSH binding, mean of triplicates, results less than 0% reported as 0%
Sequence of MC5-R (P33032 whole entry): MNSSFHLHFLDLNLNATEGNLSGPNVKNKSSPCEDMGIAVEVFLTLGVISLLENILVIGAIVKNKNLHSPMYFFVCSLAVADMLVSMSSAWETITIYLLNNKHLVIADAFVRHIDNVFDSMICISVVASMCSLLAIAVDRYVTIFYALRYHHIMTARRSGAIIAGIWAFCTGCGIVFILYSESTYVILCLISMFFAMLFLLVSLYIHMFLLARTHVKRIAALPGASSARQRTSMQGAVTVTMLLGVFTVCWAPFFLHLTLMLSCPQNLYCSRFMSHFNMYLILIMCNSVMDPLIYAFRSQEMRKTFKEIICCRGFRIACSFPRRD
Protocol: as §1, §2

Row | Inhibition at 1 μM MC1-R [1] [%] | Inhibition at 1 μM MC3-R (MC3-R) [%] | Inhibition at 1 μM MC4-R (MC4-R) [%] | Inhibition at 1 μM MC5-R (MC5-R) [%] | inhibition at 1 µM [1] [%] | inhibition at 1 µM (MC3-R) [%] | inhibition at 1 µM (MC4-R) [%] | inhibition at 1 µM (MC5-R) [%] | Structure (SMILES)
1 | 85 | 46 | 43 | 34 | – | – | – | – | CC(=O)NC(Cc1cnc[nH]1)C(=O)NC(Cc1ccccc1)C(=O)N1CC(OCc2ccccc2)CC1C(=O)NCCCN (stereo not shown) [Example 139]
2 | 78 | 3 | 1 | 10 | – | – | – | – | NCCCNC(=O)[C@@H]1C[C@@H](OCc2ccccc2)CN1C(=O)[C@@H](Cc1ccccc1)NC(=O)[C@H](Cc1cnc[nH]1)NC(=O)c1ccccc1 [Example 140]
3 | 84 | 4 | 0 | 19 | – | – | – | – | NCCCNC(=O)[C@@H]1C[C@@H](OCc2ccccc2)CN1C(=O)[C@@H](Cc1ccccc1)NC(=O)[C@H](Cc1cnc[nH]1)NC(=O)Cc1ccc2ccccc2c1 [Example 141]
4 | 85 | 3 | 0 | 12 | – | – | – | – | NCCCNC(=O)[C@@H]1C[C@@H](OCc2ccccc2)CN1C(=O)[C@@H](Cc1ccccc1)NC(=O)[C@H](Cc1cnc[nH]1)NC(=O)CC1CCCCC1 [Example 142]
5 | 73 | 0 | 0 | 7 | – | – | – | – | CCCC(CCC)C(=O)N[C@@H](Cc1cnc[nH]1)C(=O)N[C@H](Cc1ccccc1)C(=O)N1C[C@H](OCc2ccccc2)C[C@H]1C(=O)NCCCN [Example 143]
6 | 92 | 7 | 1 | 1 | – | – | – | – | CCCCCCC(=O)N[C@@H](Cc1cnc[nH]1)C(=O)N[C@H](Cc1ccccc1)C(=O)N1C[C@H](OCc2ccccc2)C[C@H]1C(=O)NCCCNC(=N)N [Example 154]
7 | 71 | 5 | 0 | 7 | – | – | – | – | CCCCCCC(=O)N[C@@H](Cc1cnc[nH]1)C(=O)N[C@H](Cc1ccccc1)C(=O)N1C[C@H](OCc2ccccc2)C[C@H]1C(=O)NCCCN [Example 155]
8 | 0 | 5 | 0 | 0 | – | – | – | – | NCCCNC(=O)[C@@H]1C[C@@H](OCc2ccccc2)CN1C(=O)[C@@H](Cc1ccccc1)NC(=O)[C@H](N)Cc1ccc2ccccc2c1 [Example 158]
9 | 0 | 14 | 1 | 0 | – | – | – | – | NCCCNC(=O)C1CC(OCc2ccccc2)CN1C(=O)C(Cc1ccccc1)NC(=O)C1NCCc2ccccc21 (stereo not shown) [Example 159]
10 | 1 | 36 | 5 | 0 | – | – | – | – | NCCCNC(=O)C1CC(OCc2ccccc2)CN1C(=O)C(Cc1ccccc1)NC(=O)C1NCCc2ccccc21 (stereo not shown) [Example 160]
11 | 3 | 23 | 10 | 0 | – | – | – | – | NCCCNC(=O)[C@@H]1C[C@@H](OCc2ccccc2)CN1C(=O)[C@@H](Cc1ccccc1)NC(=O)C1(N)CCCC1 [Example 161]

Continued, compound first:

Row | Structure (SMILES) | Inhibition at 1 μM MC1-R [1] [%] | Inhibition at 1 μM MC3-R (MC3-R) [%] | Inhibition at 1 μM MC4-R (MC4-R) [%] | Inhibition at 1 μM MC5-R (MC5-R) [%] | inhibition at 1 µM [1] [%] | inhibition at 1 µM (MC3-R) [%] | inhibition at 1 µM (MC4-R) [%] | inhibition at 1 µM (MC5-R) [%]
12 | NCCCC[C@H]1C(=O)N2C(CC[C@@H]2COc2ccc3ccccc3c2)N1C(=O)[C@@H](Cc1ccccc1Cl)NC(=O)C1(N)CCc2ccccc21 (stereo partly shown) [Example 96] | 39 | 0 | 12 | 17 | – | – | – | –
13 | [2H]NC(Cc1cnc[nH]1)C(=O)NC(Cc1ccccc1)C(=O)N1C(CCCNC(=N)N)C(=O)N2C(COc3ccc4ccccc4c3)CCC21 (stereo not shown) [Example 97] | 99 | 30 | 69 | 28 | – | – | – | –
14 | NCCCC[C@H]1C(=O)N2C(CC[C@@H]2COc2ccc3ccccc3c2)N1C(=O)[C@@H](Cc1ccccc1Cl)NCc1ccccc1 (stereo partly shown) [Example 102] | 11 | 13 | 16 | 14 | – | – | – | –
15 | NCCCCC1C(=O)N2C(COc3ccccc3)CCC2N1C(=O)C(N)Cc1ccc(Cl)cc1 (stereo not shown) [Example 103] | 9 | 0 | 0 | 0 | – | – | – | –
16 | NCCCCC1C(=O)N2C(COc3ccccc3)CCC2N1C(=O)C(N)Cc1ccccc1Cl (stereo not shown) [Example 104] | 0 | 4 | 0 | 0 | – | – | – | –
17 | NCCCC[C@H]1C(=O)N2C(CC[C@@H]2COc2ccccc2)N1C(=O)[C@@H](Cc1ccc(Cl)cc1)NC(=O)[C@@H]1Cc2ccccc2CN1 (stereo partly shown) [Example 106] | 81 | 19 | 51 | 25 | – | – | – | –
18 | NCCCC[C@H]1C(=O)N2C(CC[C@@H]2COc2ccc3c(c2)CCCC3)N1C(=O)[C@@H](Cc1ccc(Cl)cc1)NC(=O)[C@@H]1Cc2ccccc2CN1 (stereo partly shown) [Example 108] | 96 | 19 | 94 | 66 | – | – | – | –
19 | NCCCC[C@H]1C(=O)N2C(CC[C@@H]2COc2ccc3c(c2)CCCC3)N1C(=O)[C@@H](Cc1ccc(Cl)cc1)NC(=O)[C@@H](N)COCc1ccccc1 (stereo partly shown) [Example 109] | 93 | 4 | 78 | 56 | – | – | – | –
20 | NCCCCCCC(=O)N[C@@H](COCc1ccccc1)C(=O)N[C@H](Cc1ccc(Cl)cc1)C(=O)N1C2CC[C@H](COc3ccc4c(c3)CCCC4)N2C(=O)[C@@H]1CCCCN (stereo partly shown) [Example 110] | 97 | 59 | 96 | 84 | – | – | – | –
21 | N=C(N)NCCC[C@H]1C(=O)N(CCc2ccc3ccccc3c2)CCN1C(=O)[C@H](N)Cc1ccccc1Cl [Example 122] | 3 | 2 | 69 | 5 | – | – | – | –
22 | N=C(N)NCCC[C@H]1C(=O)N(CCc2ccc3ccccc3c2)CCN1C(=O)[C@H](N)Cc1ccc(Cl)cc1 [Example 123] | 34 | 38 | 87 | 29 | – | – | – | –
23 | N=C(N)NCCC[C@H]1C(=O)N(CCc2c[nH]c3ccccc23)CCN1C(=O)[C@H](N)Cc1ccc(Cl)cc1Cl [Example 124] | 7 | 57 | 96 | 35 | – | – | – | –
24 | N=C(N)NCCC[C@H]1C(=O)N(CCc2c[nH]c3ccccc23)CCN1C(=O)[C@H](N)Cc1ccc(Cl)cc1 [Example 125] | 10 | 28 | 68 | 43 | – | – | – | –
25 | Cc1ccc(CCN2CCN(C(=O)[C@H](N)Cc3ccc(Cl)cc3Cl)[C@@H](CCCNC(=N)N)C2=O)cc1 [Example 126] | 11 | 42 | 78 | 34 | – | – | – | –
26 | Cc1ccc(CCN2CCN(C(=O)[C@H](N)Cc3ccc(Cl)cc3)[C@@H](CCCNC(=N)N)C2=O)cc1 [Example 127] | 9 | 9 | 49 | 17 | – | – | – | –
27 | N=C(N)c1ccc(C[C@H]2C(=O)N(CCc3ccc4ccccc4c3)CCN2C(=O)[C@H](N)Cc2ccc(Cl)cc2Cl)cc1 [Example 128] | 5 | 0 | 31 | 21 | – | – | – | –
28 | NCCC[C@H]1CN(CCc2ccc3ccccc3c2)CCN1C(=O)[C@H](N)Cc1ccc(Cl)cc1Cl [Example 130] | 0 | 33 | 81 | 39 | – | – | – | –
29 | C[C@H](N)C(=O)N[C@@H](Cc1cnc[nH]1)C(=O)N[C@H](Cc1ccccc1)C(=O)N1C[C@H](OCc2ccccc2)C[C@H]1C(=O)NCCCN [Example 135] (H-AH[dF][Hyp](Bn)-{NH(CH2)3NH2}) | 93 | 0 | 0 | 0 | – | – | – | –
30 | [2H]N[C@@H](Cc1ccccc1)C(=O)N1C[C@H](OCc2ccccc2)C[C@H]1C(=O)NCCCN [Example 137] | – | – | – | – | 23 | 0 | 0 | 0
31 | CCCCCCC(=O)N[C@@H](COCc1ccccc1)C(=O)N[C@H](Cc1ccc2ccccc2c1)C(=O)N1C[C@@H](Oc2ccc3ccccc3c2)C[C@H]1C(=O)NCCCN [Example 138] | 39 | 0 | 0 | 0 | – | – | – | –

— US7807678B2, “Peptidomimetics of biologically active metallopeptides” (Palatin Technologies, Inc., priority 2001, dated 2010)
